Measurements published in US20150105383A1, “HDAC Inhibitors, Alone Or In Combination With PI3K Inhibitors, For Treating Non-Hodgkin's Lymphoma” (Acetylon Pharmaceuticals, Inc., priority 2013, published 2015).
“Also recorded” adds a separate entry of the source.

Columns and labels:
[1] = test system: Jeko1 or Mino lymphoma cells; test: Apoptosis by flow cytometry, statements for the cell lines together; format: cell-based, human; conditions: 4 days; for cellular apoptosis: Compound A or B plus a PI3Ki, lymphoma cells; for apoptosis / percentage of apoptotic cells: Jeko1 or Mino, relative to control cells (DMSO), Compound A or B 2-3 μM, GDC-0941 0.075-2 μM, CAL-101 2 μM
Method: Jeko1 (FIG. 4A and FIG. 4B) or Mino (FIG. 4C) lymphoma cells were exposed to drug for 4 days, and apoptosis was assessed by flow cytometry by measuring Annexin V binding and cellular permeability to propidium iodide. The relative fraction of cells that were live, in early apoptosis, in late apoptosis, or dead was then estimated. The cells were treated with DMSO, Compound A or B (2-3 μM), GDC-0941 (0.075-2 μM), or the combination of Compound A or B (2-3 μM) with GDC-0941 (0.075-2 μM) on the induction of apoptosis. Alternatively, cells were treated with DMSO, Compound A or B (2 μM), CAL-101 (2 μM), or the combination of Compound A or B (2 μM) with CAL-101 (2 μM) before measuring induction of apoptosis.

[2] = test system: Jeko1, Mino or Granta-519 lymphoma cells; test: Cell cycle distribution by flow cytometry, statements for all cell lines together; format: cell-based, human; conditions: Compound A or B 2 μM and/or PI3K inhibitor, 4 days
Method: The relative fraction of cells in each stage of the cell cycle (G0/G1, S, and G2/M), as well as the fraction of dead cells (Sub G1) was then estimated. Cells were treated with DMSO, Compound A or B (2 μM), GDC-0941 (0.075-0.5 μM), or the combination of Compound A or B (2 μM) with GDC-0941 (0.075-0.5 μM) on cell cycle inhibition. Alternatively, cells were treated with DMSO, Compound A or B (2 μM), CAL-101 (1-2 μM), or the combination of Compound A or B (2 μM) with CAL-101 (1-2 μM) before measuring effects on cell cycle inhibition.

[3] = test system: Mino, Jeko1, Granta-519, U2932 and SUDHL16 cells; test: MTS cell viability, dose-matrix combination of HDAC6 inhibitor and PI3K inhibitor (Fa-CI, Chou-Talalay); format: cell-based, human; conditions: HDAC6 inhibitor in combination with a PI3K inhibitor (GDC-0941 or GS-1101/CAL-101), 48 hr
Method: Human lymphoma cell lines were selected that represented the most common subtypes of NHL. For Mantle Cell Lymphoma (MCL) Mino, Jeko1, and Granta-519 cells were utilized, while U2932 and SUDHL16 cells represented the activated B cell (ABC) and germinal center (GC) subtypes of diffuse large B cell lymphoma (DLBCL), respectively. Briefly, cells were seeded in 384-well plates and treated in quadruplicate in a dose-matrix format with an HDAC6 inhibitor (Compound A, Compound B, or Compound C) in combination with a PI3K inhibitor (GDC-0941 or GS-1101/CAL-101). After incubating these cells for 48 hr, total cell viability was assessed via an MTS assay (Aqueous One, Promega). The fraction affected (Fa) was subsequently determined for each dose combination and the combination index (CI) was assessed using the method of Chou-Talay.

[4] = relative to start of dosing; GDC-0941 100 mg/kg PO QD, Compound A 30 mg/kg IP QD; five days per week for 3 cycles
Method: Percent body weight change was determined relative to the start of dosing, and the mean change±SD was plotted. All treatments were dosed five days per week for 3 cycles.

SMILES: O=C(CCCCCCNC(=O)c1cnc(N(c2ccccc2)c2ccccc2)nc1)NO [Compound A, 2-(diphenylamino)-N-(7-(hydroxyamino)-7-oxoheptyl) pyrimidine-5-carboxamide]
- cellular apoptosis [1]: synergistic increases in cellular apoptosis
- apoptosis / percentage of apoptotic cells [1]: small increase in apoptosis relative to control cells
- cell cycle progression [2]: decreased cell cycle progression
- synergy in decreasing lymphoma cell viability [3]: synergistic decreases in lymphoma cell viability

SMILES: O=C(CCCCCCNC(=O)c1cnc(N(c2ccccc2)c2ccccc2Cl)nc1)NO [Compound B, 2-((2-chlorophenyl)(phenyl)amino)-N-(7-(hydroxyamino)-7-oxoheptyl)pyrimidine-5-carboxamide]
- cellular apoptosis [1]: synergistic increases in cellular apoptosis
- apoptosis / percentage of apoptotic cells [1]: small increase in apoptosis relative to control cells
- cell cycle progression [2]: decreased cell cycle progression
- synergy in decreasing lymphoma cell viability [3]: synergistic decreases in lymphoma cell viability

SMILES: O=C(NO)c1cnc(NC2(c3cccc(F)c3)CCCCC2)nc1 [Compound C, 2-((1-(3-fluorophenyl)cyclohexyl)amino)-N-hydroxypyrimidine-5-carboxamide]
- synergy in decreasing lymphoma cell viability [3]: synergistic decreases in lymphoma cell viability

SMILES: CS(=O)(=O)N1CCN(Cc2cc3nc(-c4cccc5[nH]ncc45)nc(N4CCOCC4)c3s2)CC1 [GDC-0941, 2-(1H-indazol-4-yl)-6-(4-methanesulfonyl-piperazin-1-ylmehtyl)-4-morpholin-4-yl-thienol[3,2-d]pyrimidine]
- body weight change [4]: complete recovery after minimal body weight loss; also recorded: low level body weight loss was recovered by the end of the treatment period
- apoptosis / percentage of apoptotic cells [1]: did not result in increased cell death
